# Experimental data: ChEMBL document CHEMBL1201862, “PubChem BioAssay data set” (2004)
#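 96-well plates; 48 h exposure; 5 concentrations. Endpoints by linear interpolation between flanking doses. Not reached: highest tested concentration assigned. GI50 marks 50% less growth.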 Calls of active or inactive are those of the source. Cut-off read from the data, not from the text of the source: active = GI50 up to about 1.1 µM and inactive = higher.
# What was measured:
# Experiment in all cases: inhibition of tumour cell growth, NCI panel, 48 h
# A549 = system: A549
# BT-549 = system: BT-549
# COLO 205 = system: COLO 205
# DU-145 = system: DU-145
# HL-60 = system: HL-60
# HOP-62 = system: HOP-62
# IGROV-1 = system: IGROV-1
# MDA-N = system: MDA-N
# NCI-H23 = system: NCI-H23
# OVCAR-8 = system: OVCAR-8
# RXF 393 = system: RXF 393
# SF-539 = system: SF-539
# SK-MEL-2 = system: SK-MEL-2
# SNB-75 = system: SNB-75
# SW-620 = system: SW-620
# T47D = system: T47D
# TK-10 = system: TK-10
# UACC-257 = system: UACC-257
# RPMI-8226 = system: RPMI-8226
# NCI-H226 = system: NCI-H226
SMILES,GI50 (A549),GI50 (BT-549),GI50 (COLO 205),GI50 (DU-145),GI50 (HL-60),GI50 (HOP-62),GI50 (IGROV-1),GI50 (MDA-N),GI50 (NCI-H23),GI50 (OVCAR-8),GI50 (RXF 393),GI50 (SF-539),GI50 (SK-MEL-2),GI50 (SNB-75),GI50 (SW-620),GI50 (T47D),GI50 (TK-10),GI50 (UACC-257),GI50 (RPMI-8226),GI50 (NCI-H226)
CCNCCCNc1c2ccccc2nc2ccccc12,0.64 µM (active),1.92 µM (inactive),0.232 µM (active),0.525 µM (active),0.493 µM (active),0.402 µM (active),0.48 µM (active),0.356 µM (active),0.446 µM (active),0.349 µM (active),0.568 µM (active),0.279 µM (active),0.518 µM (active),0.234 µM (active),0.278 µM (active),0.502 µM (active),0.571 µM (active),0.424 µM (active),,
COC(=O)CCCC(=O)NC1=C(NCc2ccccc2)C(=O)c2ccccc2C1=O,56.5 µM (inactive),28.6 µM (inactive),23.8 µM (inactive),> 100 µM (inactive),29 µM (inactive),,44.2 µM (inactive),41.4 µM (inactive),53.2 µM (inactive),68.4 µM (inactive),,36.4 µM (inactive),87.5 µM (inactive),> 100 µM (inactive),60.8 µM (inactive),59.3 µM (inactive),> 100 µM (inactive),29.7 µM (inactive),49.5 µM (inactive),
N#Cc1c(-c2ccccc2)cc(Nc2cccc(C(F)(F)F)c2)n2c1nc1ccccc12,,3.82 µM (inactive),1.04 µM (active),4.04 µM (inactive),,1.77 µM (inactive),,1.4 µM (inactive),0.336 µM (active),1.01 µM (active),1.99 µM (inactive),2.22 µM (inactive),,1.82 µM (inactive),3.05 µM (inactive),0.764 µM (active),2.56 µM (inactive),0.733 µM (active),0.237 µM (active),0.687 µM (active)
CC(NP(=O)(c1ccccc1)c1ccccc1)c1ccccc1 (centres undefined),> 100 µM (inactive),> 100 µM (inactive),> 100 µM (inactive),> 100 µM (inactive),> 100 µM (inactive),> 100 µM (inactive),> 100 µM (inactive),> 100 µM (inactive),> 100 µM (inactive),> 100 µM (inactive),> 100 µM (inactive),> 100 µM (inactive),,> 100 µM (inactive),> 100 µM (inactive),> 100 µM (inactive),> 100 µM (inactive),> 100 µM (inactive),> 100 µM (inactive),> 100 µM (inactive)
OC1COC(OCc2ccccc2)C(O)C1O (centres undefined),> 100 µM (inactive),> 100 µM (inactive),> 100 µM (inactive),> 100 µM (inactive),> 100 µM (inactive),> 100 µM (inactive),> 100 µM (inactive),> 100 µM (inactive),> 100 µM (inactive),> 100 µM (inactive),> 100 µM (inactive),> 100 µM (inactive),> 100 µM (inactive),,> 100 µM (inactive),> 100 µM (inactive),> 100 µM (inactive),> 100 µM (inactive),> 100 µM (inactive),> 100 µM (inactive)
COc1cc2c(cc1OC)C1CN3CCCC3C(O)C1c1cc(OC)c(OC)cc1-2 (centres undefined),> 100 µM (inactive),> 100 µM (inactive),> 100 µM (inactive),> 100 µM (inactive),> 100 µM (inactive),40.2 µM (inactive),> 100 µM (inactive),> 100 µM (inactive),> 100 µM (inactive),> 100 µM (inactive),82.8 µM (inactive),,> 100 µM (inactive),,> 100 µM (inactive),15.3 µM (inactive),> 100 µM (inactive),> 100 µM (inactive),> 100 µM (inactive),
Cc1cc(S(=O)(=O)N/C(=C(\C#N)C(=O)c2ccccc2)[n+]2ccc(N(C)C)cc2)c([S-])cc1Cl,> 100 µM (inactive),> 100 µM (inactive),> 100 µM (inactive),> 10 µM (inactive),> 100 µM (inactive),> 100 µM (inactive),88.3 µM (inactive),> 100 µM (inactive),> 100 µM (inactive),> 100 µM (inactive),> 100 µM (inactive),> 100 µM (inactive),83 µM (inactive),,,> 100 µM (inactive),53.6 µM (inactive),> 100 µM (inactive),> 100 µM (inactive),> 100 µM (inactive)
CC1(Cc2cc3c(cc2C2(c4ccc([N+](=O)[O-])cc4)OCCO2)OCO3)OCCO1,43.8 µM (inactive),29.6 µM (inactive),67.6 µM (inactive),> 100 µM (inactive),> 100 µM (inactive),> 100 µM (inactive),51.1 µM (inactive),> 100 µM (inactive),55.2 µM (inactive),59.2 µM (inactive),86.1 µM (inactive),> 100 µM (inactive),68.4 µM (inactive),,> 100 µM (inactive),> 100 µM (inactive),> 100 µM (inactive),90.4 µM (inactive),27.3 µM (inactive),45 µM (inactive)
CC(C(=O)c1ccncc1)c1ccccn1 (centres undefined),> 100 µM (inactive),> 100 µM (inactive),> 100 µM (inactive),> 100 µM (inactive),> 100 µM (inactive),> 100 µM (inactive),> 100 µM (inactive),> 100 µM (inactive),> 100 µM (inactive),> 100 µM (inactive),> 100 µM (inactive),,> 100 µM (inactive),,> 100 µM (inactive),> 100 µM (inactive),> 100 µM (inactive),> 100 µM (inactive),> 100 µM (inactive),> 100 µM (inactive)
Cc1cc(Cl)ccc1NC(=O)/C(Cc1nc2ccc(C(=O)c3ccccc3)cc2nc1O)=N/NC(=O)c1ccncc1,> 100 µM (inactive),> 100 µM (inactive),,,95.9 µM (inactive),> 100 µM (inactive),> 100 µM (inactive),97.3 µM (inactive),> 100 µM (inactive),> 100 µM (inactive),> 100 µM (inactive),> 100 µM (inactive),> 100 µM (inactive),> 100 µM (inactive),> 100 µM (inactive),> 100 µM (inactive),> 100 µM (inactive),> 100 µM (inactive),> 100 µM (inactive),1.72 µM (inactive)
CCCCC(=O)Nc1ccc2cc(C(=O)OC)c(ON3C(=O)c4ccccc4C3=O)nc2n1,27.2 µM (inactive),38.3 µM (inactive),64.4 µM (inactive),,,18.6 µM (inactive),16.3 µM (inactive),22.3 µM (inactive),44.1 µM (inactive),25 µM (inactive),20.5 µM (inactive),18 µM (inactive),37.5 µM (inactive),28.6 µM (inactive),46 µM (inactive),35.3 µM (inactive),14.6 µM (inactive),23.5 µM (inactive),89.9 µM (inactive),22.5 µM (inactive)
Cc1cc(Cl)ccc1NC(=O)/C(Cl)=C(/Cl)C(=O)O,48.8 µM (inactive),19.1 µM (inactive),28.4 µM (inactive),23.9 µM (inactive),25.7 µM (inactive),22.2 µM (inactive),,24.1 µM (inactive),29.3 µM (inactive),17.7 µM (inactive),19.6 µM (inactive),23 µM (inactive),,29.9 µM (inactive),21 µM (inactive),22.8 µM (inactive),17.5 µM (inactive),19.7 µM (inactive),24 µM (inactive),
COc1ccc2c3c1O[C@H]1C(O)CCC4(O)[C@@H](C2)NCC[C@]314 (some centres undefined),> 100 µM (inactive),> 100 µM (inactive),> 100 µM (inactive),> 100 µM (inactive),> 100 µM (inactive),> 100 µM (inactive),> 100 µM (inactive),> 100 µM (inactive),> 100 µM (inactive),> 100 µM (inactive),,> 100 µM (inactive),> 100 µM (inactive),,> 100 µM (inactive),> 100 µM (inactive),> 100 µM (inactive),> 100 µM (inactive),> 100 µM (inactive),> 100 µM (inactive)
O=C(Oc1c(Br)cc(Br)cc1C(=O)Oc1ccccc1)C(=O)Oc1c(Br)cc(Br)cc1C(=O)Oc1ccccc1,14.5 µM (inactive),18.5 µM (inactive),21.6 µM (inactive),37.5 µM (inactive),< 0.01 µM (active),16.2 µM (inactive),26.7 µM (inactive),27.5 µM (inactive),0.621 µM (active),30.8 µM (inactive),12.9 µM (inactive),19.7 µM (inactive),26.7 µM (inactive),,19.8 µM (inactive),27.1 µM (inactive),49.2 µM (inactive),39 µM (inactive),15.5 µM (inactive),16 µM (inactive)
Cc1ccc2c(=O)c(C(=O)NNC(=S)NC3CCCCC3)c[nH]c2n1,> 100 µM (inactive),71.3 µM (inactive),64.6 µM (inactive),> 100 µM (inactive),46.9 µM (inactive),68.1 µM (inactive),35.6 µM (inactive),31.6 µM (inactive),94.8 µM (inactive),> 100 µM (inactive),> 100 µM (inactive),,65.9 µM (inactive),,40.6 µM (inactive),46.9 µM (inactive),> 100 µM (inactive),> 100 µM (inactive),42.8 µM (inactive),23.9 µM (inactive)
